Results from PubChem BioAssay AID1963851 (Molecular Pharmacology Branch, DTP, NCI, 2024).

Tested on: 188146-221-R-J1-PDC complex spheroid viability
Experiment: Anticancer human tumor 188146-221-R-J1-PDC patient-derived colon adenocarcinoma cell line growth inhibition [POLQ]
Details: for IC50: curve of first compound; for viability, T/C: stronger effect = lower value
Procedure, shortened: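 Patient-derived tumour cells were co-cultured with HUVEC and mesenchymal stem cells as multicellular spheroids at 37 °C. They were treated with POLQ inhibitors (novobiocin, ART-558, RP6685) alone or combined with other agents. Top concentrations were at or near clinical Cmax (otherwise 10 microM; SN-38 at 1 microM), decreasing in half-log steps.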

[1] = second compound 0.0316 µM, first compound 0.00316 µM
[2] = second compound 0.0316 µM, first compound 0.01 µM
[3] = second compound 0.0316 µM, first compound 0.0316 µM
[4] = second compound 0.0316 µM, first compound 0.1 µM
[5] = second compound 0.0316 µM, first compound 0.316 µM
[6] = second compound 0.0316 µM, first compound 1 µM
[7] = second compound 0.1 µM, first compound 0.00316 µM
[8] = second compound 0.1 µM, first compound 0.01 µM
[9] = second compound 0.1 µM, first compound 0.0316 µM
[10] = second compound 0.1 µM, first compound 0.1 µM
[11] = second compound 0.1 µM, first compound 0.316 µM
[12] = second compound 0.1 µM, first compound 1 µM
[13] = second compound 0.316 µM, first compound 0.00316 µM
[14] = second compound 0.316 µM, first compound 0.01 µM
[15] = second compound 0.316 µM, first compound 0.0316 µM
[16] = second compound 0.316 µM, first compound 0.1 µM
[17] = second compound 0.316 µM, first compound 0.316 µM
[18] = second compound 0.316 µM, first compound 1 µM
[19] = second compound 1 µM, first compound 0.00316 µM
[20] = second compound 1 µM, first compound 0.01 µM
[21] = second compound 1 µM, first compound 0.0316 µM
[22] = second compound 1 µM, first compound 0.1 µM
[23] = second compound 1 µM, first compound 0.316 µM
[24] = second compound 1 µM, first compound 1 µM
[25] = second compound 3.16 µM, first compound 0.00316 µM
[26] = second compound 3.16 µM, first compound 0.01 µM
[27] = second compound 3.16 µM, first compound 0.0316 µM
[28] = second compound 3.16 µM, first compound 0.1 µM
[29] = second compound 3.16 µM, first compound 0.316 µM
[30] = second compound 3.16 µM, first compound 1 µM
[31] = second compound 10 µM, first compound 0.00316 µM
[32] = second compound 10 µM, first compound 0.01 µM
[33] = second compound 10 µM, first compound 0.0316 µM
[34] = second compound 10 µM, first compound 0.1 µM
[35] = second compound 10 µM, first compound 0.316 µM
[36] = second compound 10 µM, first compound 1 µM
[37] = second compound 0.0316 µM, first compound 3.16 µM
[38] = second compound 0.0316 µM, first compound 10 µM
[39] = second compound 0.1 µM, first compound 3.16 µM
[40] = second compound 0.1 µM, first compound 10 µM
[41] = second compound 0.316 µM, first compound 3.16 µM
[42] = second compound 0.316 µM, first compound 10 µM
[43] = second compound 1 µM, first compound 3.16 µM
[44] = second compound 1 µM, first compound 10 µM
[45] = second compound 3.16 µM, first compound 3.16 µM
[46] = second compound 3.16 µM, first compound 10 µM
[47] = second compound 10 µM, first compound 3.16 µM
[48] = second compound 10 µM, first compound 10 µM
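Also: spheroids exposed to compounds for seven days.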
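For viability, T/C in this document: 100% = DMSO vehicle control viability.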

SMILES: C=CCn1c(=O)c2cnc(Nc3ccc(N4CCN(C)CC4)cc3)nc2n1-c1cccc(C(C)(C)O)n1 + Nc1ccc(C#CCN(C(=O)Cc2ncc(C(F)(F)F)cc2C(F)(F)F)c2ccc(F)cc2)nn1
- IC50 (second compound 0.0316 µM): > 1000 nM
- IC50 (second compound 0.1 µM): > 1000 nM
- IC50 (second compound 0.316 µM): > 1000 nM
- IC50 (second compound 1 µM): > 1000 nM
- IC50 (second compound 3.16 µM): > 1000 nM
- IC50 (second compound 10 µM): 788 nM
- viability, T/C [1]: 112%
- viability, T/C [2]: 100%
- viability, T/C [3]: 98.6%
- viability, T/C [4]: 100%
- viability, T/C [5]: 102%
- viability, T/C [6]: 55.6%
- viability, T/C [7]: 111%
- viability, T/C [8]: 97%
- viability, T/C [9]: 119%
- viability, T/C [10]: 117%
- viability, T/C [11]: 109%
- viability, T/C [12]: 57.1%
- viability, T/C [13]: 115%
- viability, T/C [14]: 104%
- viability, T/C [15]: 115%
- viability, T/C [16]: 111%
- viability, T/C [17]: 84.6%
- viability, T/C [18]: 50.6%
- viability, T/C [19]: 119%
- viability, T/C [20]: 106%
- viability, T/C [21]: 100%
- viability, T/C [22]: 122%
- viability, T/C [23]: 101%
- viability, T/C [24]: 55.9%
- viability, T/C [25]: 107%
- viability, T/C [26]: 110%
- viability, T/C [27]: 114%
- viability, T/C [28]: 110%
- viability, T/C [29]: 108%
- viability, T/C [30]: 52.1%
- viability, T/C [31]: 114%
- viability, T/C [32]: 114%
- viability, T/C [33]: 104%
- viability, T/C [34]: 110%
- viability, T/C [35]: 98.4%
- viability, T/C [36]: 37.2%

SMILES: CNCc1ccc(-c2[nH]c3cc(F)cc4c3c2CCNC4=O)cc1 + Nc1ccc(C#CCN(C(=O)Cc2ncc(C(F)(F)F)cc2C(F)(F)F)c2ccc(F)cc2)nn1
- IC50 (second compound 0.0316 µM): > 10000 nM
- IC50 (second compound 0.1 µM): > 10000 nM
- IC50 (second compound 0.316 µM): > 10000 nM
- IC50 (second compound 1 µM): > 10000 nM
- IC50 (second compound 3.16 µM): > 10000 nM
- IC50 (second compound 10 µM): > 10000 nM
- viability, T/C [3]: 114%
- viability, T/C [4]: 107%
- viability, T/C [5]: 109%
- viability, T/C [6]: 106%
- viability, T/C [37]: 103%
- viability, T/C [38]: 120%
- viability, T/C [9]: 111%
- viability, T/C [10]: 104%
- viability, T/C [11]: 100%
- viability, T/C [12]: 113%
- viability, T/C [39]: 108%
- viability, T/C [40]: 116%
- viability, T/C [15]: 114%
- viability, T/C [16]: 100%
- viability, T/C [17]: 85.3%
- viability, T/C [18]: 110%
- viability, T/C [41]: 123%
- viability, T/C [42]: 119%
- viability, T/C [21]: 106%
- viability, T/C [22]: 99.2%
- viability, T/C [23]: 93.5%
- viability, T/C [24]: 111%
- viability, T/C [43]: 104%
- viability, T/C [44]: 100%
- viability, T/C [27]: 102%
- viability, T/C [28]: 94.7%
- viability, T/C [29]: 99.5%
- viability, T/C [30]: 109%
- viability, T/C [45]: 110%
- viability, T/C [46]: 103%
- viability, T/C [33]: 114%
- viability, T/C [34]: 115%
- viability, T/C [35]: 112%
- viability, T/C [36]: 108%
- viability, T/C [47]: 120%
- viability, T/C [48]: 130%

SMILES: COc1cccc(OCCCN)c1-c1cc(Nc2cnc(C#N)cn2)n[nH]1 + Nc1ccc(C#CCN(C(=O)Cc2ncc(C(F)(F)F)cc2C(F)(F)F)c2ccc(F)cc2)nn1
- IC50 (second compound 0.0316 µM): 64.2 nM
- IC50 (second compound 0.1 µM): 57.3 nM
- IC50 (second compound 0.316 µM): 47.7 nM
- IC50 (second compound 1 µM): 29.9 nM
- IC50 (second compound 3.16 µM): 37.5 nM
- IC50 (second compound 10 µM): 28.6 nM
- viability, T/C [1]: 94.9%
- viability, T/C [2]: 96%
- viability, T/C [3]: 77.4%
- viability, T/C [4]: 32.7%
- viability, T/C [5]: 16.2%
- viability, T/C [6]: 13.6%
- viability, T/C [7]: 104%
- viability, T/C [8]: 109%
- viability, T/C [9]: 66.6%
- viability, T/C [10]: 34.3%
- viability, T/C [11]: 17.3%
- viability, T/C [12]: 14%
- viability, T/C [13]: 106%
- viability, T/C [14]: 99.1%
- viability, T/C [15]: 59.1%
- viability, T/C [16]: 30.9%
- viability, T/C [17]: 16.9%
- viability, T/C [18]: 12.2%
- viability, T/C [19]: 108%
- viability, T/C [20]: 111%
- viability, T/C [21]: 46.8%
- viability, T/C [22]: 28.2%
- viability, T/C [23]: 15.6%
- viability, T/C [24]: 14%
- viability, T/C [25]: 91.5%
- viability, T/C [26]: 85.1%
- viability, T/C [27]: 54.3%
- viability, T/C [28]: 23.7%
- viability, T/C [29]: 15.6%
- viability, T/C [30]: 13.7%
- viability, T/C [31]: 119%
- viability, T/C [32]: 87.8%
- viability, T/C [33]: 47.6%
- viability, T/C [34]: 21.7%
- viability, T/C [35]: 17%
- viability, T/C [36]: 15.4%

SMILES: O=C(c1cc(Cc2n[nH]c(=O)c3ccccc23)ccc1F)N1CCN(C(=O)C2CC2)CC1 + Nc1ccc(C#CCN(C(=O)Cc2ncc(C(F)(F)F)cc2C(F)(F)F)c2ccc(F)cc2)nn1
- IC50 (second compound 0.0316 µM): > 10000 nM
- IC50 (second compound 0.1 µM): > 10000 nM
- IC50 (second compound 0.316 µM): > 10000 nM
- IC50 (second compound 1 µM): > 10000 nM
- IC50 (second compound 3.16 µM): > 10000 nM
- IC50 (second compound 10 µM): > 10000 nM
- viability, T/C [3]: 99.7%
- viability, T/C [4]: 116%
- viability, T/C [5]: 104%
- viability, T/C [6]: 98.3%
- viability, T/C [37]: 93.6%
- viability, T/C [38]: 72.2%
- viability, T/C [9]: 111%
- viability, T/C [10]: 100%
- viability, T/C [11]: 107%
- viability, T/C [12]: 90.7%
- viability, T/C [39]: 101%
- viability, T/C [40]: 75%
- viability, T/C [15]: 116%
- viability, T/C [16]: 88.5%
- viability, T/C [17]: 89.9%
- viability, T/C [18]: 106%
- viability, T/C [41]: 80.9%
- viability, T/C [42]: 81.6%
- viability, T/C [21]: 117%
- viability, T/C [22]: 90.3%
- viability, T/C [23]: 94.3%
- viability, T/C [24]: 92.5%
- viability, T/C [43]: 96%
- viability, T/C [44]: 69.1%
- viability, T/C [27]: 101%
- viability, T/C [28]: 104%
- viability, T/C [29]: 97%
- viability, T/C [30]: 102%
- viability, T/C [45]: 91.2%
- viability, T/C [46]: 77.1%
- viability, T/C [33]: 95.3%
- viability, T/C [34]: 95.3%
- viability, T/C [35]: 110%
- viability, T/C [36]: 89.8%
- viability, T/C [47]: 88.2%
- viability, T/C [48]: 73%
